# Data as given in patent US10464915B2, “Dapagliflozin crystal form and preparation method and use thereof” (Jiangsu Hansoh Pharmaceutical Group Co., Ltd., priority 2016, dated 2019).
# Like-named read-outs stand apart in the source and are kept apart here.
# Legend:
# [1] = directly compressed, control pressure 10 KN; crystal form prepared in Example 8; FIG. 4
# From the text: The crystal form prepared in the Example 8 of the present invention was directly compressed by a tableting machine, and the control pressure was 10 KN.
# [2] = 25° C.
compound,measurement,setting,value
"CCOc1ccc(Cc2cc([C@@H]3O[C@H](CO)[C@@H](O)[C@H](O)[C@H]3O)ccc2Cl)cc1 [Crystal form E, 2-chloro-5-(β-D-glucopyranosyl-1-yl)-4′-ethoxydiphenylmethane]",Crystal form transformation under tableting,[1],didn't undergo crystal form transformation
same,Crystal form,"40° C., 0 day",Crystal form E
same,Purity,"40° C., 0 day",99.9%
same,Crystal form,"40° C., 5 days",Crystal form E
same,Purity,"40° C., 5 days",99.9%
same,Crystal form,"40° C., 10 days",Crystal form E
same,Purity,"40° C., 10 days",99.9%
same,Crystal form,"40° C., 30 days",Crystal form E
same,Purity,"40° C., 30 days",99.9%
same,Crystal form,"Lighting (5000 lux), 0 day",Crystal form E
same,Purity,"Lighting (5000 lux), 0 day",99.9%
same,Crystal form,"Lighting (5000 lux), 5 days",Crystal form E
same,Purity,"Lighting (5000 lux), 5 days",99.9%
same,Crystal form,"Lighting (5000 lux), 10 days",Crystal form E
same,Purity,"Lighting (5000 lux), 10 days",99.9%
same,Crystal form,"Lighting (5000 lux), 30 days",Crystal form E
same,Purity,"Lighting (5000 lux), 30 days",99.9%
same,Time stable,high temperature (40° C.),at least 30 days
same,Time stable,lighting (5000 Lux),at least 30 days
same,Time stable,[2],at least 6 months
same,Crystal form,[2]; 0 day,Crystal form E
same,Purity,[2]; 0 day,99.9%
same,Crystal form,[2]; 1 month,Crystal form E
same,Purity,[2]; 1 month,99.9%
same,Crystal form,[2]; 3 months,Crystal form E
same,Purity,[2]; 3 months,99.9%
same,Crystal form,[2]; 6 months,Crystal form E
same,Purity,[2]; 6 months,99.9%
